Laboratory results taken from patent publication US6043263A, “(2,3-dihydrobenzofuranyl)-thiazoles as phosphodiesterase inhibitors” (Byk Gulden Lomberg Chemische Fabrik GmbH, priority 1996, dated 2000).
Where a name gives a salt, the structure may show the parent alone.

system: PDE IV; assay: Inhibition of PDE IV activity; assay type: biochemical; conditions: method of Bauer and Schwabe adapted to microtiter plates
Description: The activity test was carried out according to the method of Bauer and Schwabe, which was adapted to microtiter plates (Naunyn-Schmiedeberg's Arch. Pharmacol. 311, 193-198, 1980). In this test, the PDE reaction takes place in the first step. In a second step, the charged 5'-nucleotide is cleaved to give the uncharge nucleoside by a 5'-nucleotidase of the snake veno of Ophiophagus hannah (king cobra). In the third step, the nucleoside is separated from the remaining charged substrate on ion exchange columns. The columns are eluted directly into minivials using 2 ml of 30 mM ammonium formate (pH 6.0) to which a further 2 ml of scintillator fluid is added for counting.
The inhibitory values determined for the compounds according to the invention result from Table 1 which follows, in which the numbers of the compounds correspond to the numbers of the examples.

Q: How did the “-log IC50” value turn out when COc1ccc(-c2csc(-c3cccc(C(=O)O)c3)n2)c2c1OC1(CCCC1)C2 [Compound 5, 3-[4-(2,3-Dihydro-7-methoxybenzofuran-2-spiro-1'-cyclopentan-4-yl)thiazol-2-yl]benzoic acid] was run?
A: Its value is 7.79.

Q: With COc1ccc(-c2csc(-c3ccncc3)n2)c2c1OC1(CCCC1)C2 [Compound 2, 4-[4-(2,3-Dihydro-7-methoxybenzofuran-2-spiro-1'-cyclopentan-4-yl)thiazol-2-yl]pyridine] as the compound, how does the “-log IC50” value read?
A: Its value is 7.25.

Q: With COc1ccc(-c2csc(-c3ccnc(C(=O)O)c3)n2)c2c1OC1(CCCC1)C2 [Compound 4, 4-[4-(2,3-Dihydro-7-methoxybenzofuran-2-spiro-1'-cyclopentan-4-yl)thiazol-2-yl]pyridine-2-carboxylic acid semihydrochloride] as the compound, how does the “-log IC50” value read?
A: Its value is 6.85.

Q: Which “-log IC50” value does the source give for COc1ccc(-c2csc(-c3cccnc3)n2)c2c1OC1(CCCC1)C2 [Compound 1, 3-[4-(2,3-Dihydro-7-methoxybenzofuran-2-spiro-1'-cyclopentan-4-yl)thiazol-2-yl]pyridine] here?
A: The value was 7.74.

Q: How did the “-log IC50” value turn out when CCOC(=O)c1cc(-c2nc(-c3ccc(OC)c4c3CC3(CCCC3)O4)cs2)ccn1 [Compound 3, Ethyl 4-[4-(2,3-Dihydro-7-methoxybenzofuran-2-spiro-1'-cyclopentan-4-yl)thiazol-2-yl]pyridine-2-carboxylate] was run?
A: The value was 7.22.
